The values below are quoted from earlier work in patent US12029723B2, “Compounds and forms of treatment for female sexual disorders” (GTO PHARMA, LLC., priority 2015, dated 2024).

The subject of one series is liver. The following applies: a person taking 400 mg daily in herbal substitutes for weight loss.
For series [1], the system named is pre-menopausal women with SIAD related disorders.

Regarding Epigallocatechin-3-gallate [EGCG], the liver injury result with liver is reported as “acute but reversible liver failure”.

For the molecule `O=c1[nH]c2ccccc2n1CCN1CCN(c2cccc(C(F)(F)F)c2)CC1` [Flibanserin, 2H-benzimidazol-2-one, 1,3-dihydro-1-[2-[4-[3(tri-fluoromethyl)phenyl]-1-piperazinyl]ethyl]], the “share of women with the benefit” value in series [1] (100 mg daily for a minimum of 28 days) is listed as 18%. Further, the “effect on GPPD (vestibulodynia, dyspareunia) or FOD” value in series [1] (in vivo) was “no therapeutic effect at all”. For the same molecule, in series [1] (median baseline about 2-3 SSEs per month, six month period), the “median placebo-corrected increase in satisfying sexual events (SSEs)” value is listed as 0.5-1.0 SSEs per month. Moreover, the “sedation or hypotension-related adverse events” value in series [1] (vs 9.4% placebo) is 28.6%.
